Reference: patent US6770636B2, “Phenyl-and phenylalkyl-substituted ethanolamines and ethylenediamines” (Boehringer Ingelheim Pharma KG, priority 2000, dated 2004)
Structures can show the parent of a compound that is named as a salt.

Row | SMILES | melting point [°C]
1 | Cc1cccc(C)c1C(CNCc1ccccc1)OCCCc1c(F)cccc1F (stereo not shown) (as salt: hydrochloride) [Example 23, N-[2-[3-(2,6-difluorophenyl)propoxy]-2-(2,6-dimethylphenyl)ethyl]-N-benzylamine] | 176
2 | Cc1cccc(C)c1C(C[N+](C)(C)C)OCCCc1c(F)cccc1F.[I-] (stereo not shown) | 190
3 | Cc1cccc(C)c1C(CN(Cc1ccccc1)Cc1ccccc1)OCCCc1c(F)cccc1F (stereo not shown) (as salt: hydrochloride) [Example 24, N-[2-[3-(2,6-difluorophenyl)propoxy]-2-(2,6-dimethylphenyl)ethyl]-N,N-bis(benzyl)amine] | 108
4 | Cc1cccc(C)c1C(CN1CCCCC1)OCc1ccc(Br)cc1 (stereo not shown) (as salt: hydrochloride) [Example 39, 1-[2-(4-bromobenzyloxy)-2-(2,6-dimethylphenyl)ethyl]piperidine] | 152 to 154
5 | Cc1cccc(C)c1C(CN1CCCCC1)OCc1ccccc1 (stereo not shown) (as salt: hydrochloride) [Example 38, 1-[2-benzyloxy-2-(2,6-dimethylphenyl)ethyl]piperidine] | 197 to 199
6 | Cc1cccc(C)c1C(CN1CCCCC1)OCc1ccc(Cl)cc1 (stereo not shown) (as salt: hydrochloride) [Example 40, 1-[2-(4-chlorobenzyloxy)-2-(2,6-dimethylphenyl)ethyl]piperidine] | 134 to 135
7 | Cc1cccc(C)c1C(CN1CCCCC1)NCCCc1c(F)cccc1F (stereo not shown) (as salt: hydrochloride) [Example 35, [3-(2,6-difluorophenyl)propyl]-[1-(2,6-dimethylphenyl)-2-piperidin-1-ylethyl]amine] | 145
8 | Cc1cccc(C)c1C(CN1CCCCC1)OCCCc1c(F)cccc1F (stereo not shown) (as salt: hydrochloride) [Example 14, 1-[2-[3-(2,6-difluorophenyl)propoxy]-2-(2,6-dimethylphenyl)ethyl]piperidine] | > 200
9 | C=C(C)C1CC=C(CNCC(OCCCc2c(F)cccc2F)c2c(C)cccc2C)CC1 (stereo not shown) (as salt: hydrochloride) [Example 25, N-[2-[3-(2,6-difluorophenyl)propoxy]-2-(2,6-dimethylphenyl)ethyl]-N-(4-isopropenylcyclohexen-1-ylmethyl)amine] | 155
10 | Cc1cccc(C)c1C(CN1CCCCC1)OCc1ccc(Br)cc1Cl (stereo not shown) (as salt: hydrochloride) [Example 43, 1-[2-(2-chloro-4-bromobenzyloxy)-2-(2,6-dimethylphenyl)ethyl]piperidine] | 222 to 224
11 | Cc1cccc(C)c1C(CN(C)CC1CC1)OCCCc1c(F)cccc1F (stereo not shown) [Example 10, N-[2-[3-(2,6-difluorophenyl)propoxy]-2-(2,6-dimethylphenyl)ethyl]-N-cyclopropylmethyl-N-methylamine] | 78
12 | Cc1cccc(C)c1C(CN1CCCCC1)OCc1c(Cl)cccc1Cl (stereo not shown) (as salt: hydrochloride) [Example 41, 1-[2-(2,6-dichlorobenzyloxy)-2-(2,6-dimethylphenyl)ethyl]piperidine] | 225 to 227
13 | Cc1cccc(C)c1C(CN1CCCCC1)OCc1c(F)cccc1F (stereo not shown) (as salt: hydrochloride) [Example 42, 1-[2-(2,6-difluorobenzyloxy)-2-(2,6-dimethylphenyl)ethyl]piperidine] | 183 to 185
